Measurements as given in PubChem BioAssay (NCI).
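Protocol summary: plate cells (96-well), add compound at 5 concentrations, incubate 48 h, interpolate endpoints linearly. TGI: concentration producing complete growth inhibition.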

Experiments:
Experiment in all cases: growth of human tumour cells (NCI), 48 h
[1] = test system: SF-268 CNS
[2] = test system: U251 CNS
[3] = test system: MOLT-4 leukemia
[4] = test system: SK-OV-3 ovarian
[5] = test system: HCT-15 colon
[6] = test system: CAKI-1 renal
[7] = test system: DU-145 prostate
[8] = test system: MDA-N
[9] = test system: NCI-H522 lung
[10] = test system: ACHN renal
[11] = test system: MCF7 breast

CCCc1c2c3ccccc3nc-2nc2ccccn12
TGI [1]: 70.4 µM
TGI [2]: > 100 µM
TGI [3]: > 100 µM
TGI [4]: > 100 µM
TGI [5]: > 100 µM
TGI [6]: > 100 µM
TGI [7]: > 100 µM
TGI [8]: > 100 µM
TGI [9]: > 100 µM
TGI [10]: > 100 µM

S=C(Nc1ccc(Br)cn1)NC12CC3CC(CC(C3)C1)C2
TGI [1]: 34.5 µM
TGI [2]: 30 µM
TGI [3]: 67.6 µM
TGI [4]: 67.6 µM
TGI [5]: > 100 µM
TGI [6]: > 100 µM
TGI [7]: > 100 µM
TGI [8]: 47.7 µM
TGI [9]: 37.5 µM
TGI [10]: 56.1 µM
TGI [11]: > 100 µM

N#Cc1c(-c2ccc(Cl)cc2)c(C#N)c(=O)n(NS(=O)(=O)c2ccccc2)c1-c1ccccc1
TGI [2]: > 25 µM
TGI [3]: > 25 µM
TGI [4]: > 25 µM
TGI [5]: > 25 µM
TGI [6]: > 25 µM
TGI [8]: > 25 µM
TGI [10]: > 25 µM
TGI [11]: > 25 µM

CO[C@H]1O[C@@H]2CO[C@@H](c3ccccc3)O[C@H]2C[C@]12CCC/C=C\CO2
TGI [1]: 32.1 µM
TGI [2]: 23.5 µM
TGI [3]: 32 µM
TGI [4]: > 75 µM
TGI [5]: 27.5 µM
TGI [6]: > 75 µM
TGI [7]: > 75 µM
TGI [8]: 26.9 µM
TGI [9]: 23.6 µM
TGI [10]: 35 µM
TGI [11]: 35.7 µM

Cc1cc(=Nc2ccc3c(c2)c(N)cc(C)[n+]3C)nc(N)n1C
TGI [1]: > 100 µM
TGI [2]: > 100 µM
TGI [3]: > 100 µM
TGI [4]: > 100 µM
TGI [5]: > 100 µM
TGI [6]: > 100 µM
TGI [7]: > 100 µM
TGI [8]: > 100 µM
TGI [9]: > 100 µM
TGI [10]: > 100 µM
TGI [11]: > 100 µM

NNC(=O)c1n[nH]nc1SSc1n[nH]nc1C(=O)NN
TGI [1]: > 100 µM
TGI [2]: > 100 µM
TGI [3]: > 100 µM
TGI [4]: > 100 µM
TGI [5]: > 100 µM
TGI [6]: > 100 µM
TGI [7]: > 100 µM
TGI [8]: > 100 µM
TGI [9]: > 100 µM
TGI [10]: > 100 µM
TGI [11]: > 100 µM

CC(Cc1ccc(O)c(O)c1)C(C)Cc1ccc(O)c(O)c1 (stereo not given)
TGI [1]: 41.6 µM
TGI [2]: 38.9 µM
TGI [3]: > 62.5 µM
TGI [4]: 84 µM
TGI [5]: > 60.8 µM
TGI [6]: 25.4 µM
TGI [7]: 46.4 µM
TGI [8]: 26.3 µM
TGI [9]: 4.91 µM
TGI [10]: 33.5 µM
TGI [11]: 41.8 µM

Cc1cc2c(-c3ccccc3)cc(=O)[nH]c2cc1N
TGI [2]: > 100 µM
TGI [3]: > 100 µM
TGI [5]: > 100 µM
TGI [6]: > 100 µM
TGI [7]: > 100 µM
TGI [8]: > 100 µM
TGI [10]: > 100 µM
TGI [11]: > 100 µM

O=[N+]([O-])C1(C2([N+](=O)[O-])CCCC2)CCCC1
TGI [1]: > 100 µM
TGI [2]: > 100 µM
TGI [3]: > 100 µM
TGI [4]: > 100 µM
TGI [5]: > 100 µM
TGI [6]: > 100 µM
TGI [7]: > 100 µM
TGI [8]: > 100 µM
TGI [9]: > 100 µM
TGI [11]: > 100 µM

CCOC(=O)c1nc2cc(C(F)(F)F)ccc2nc1Nc1ccc(Cl)c(Cl)c1
TGI [1]: > 100 µM
TGI [2]: > 100 µM
TGI [3]: > 100 µM
TGI [4]: > 100 µM
TGI [5]: > 100 µM
TGI [6]: > 100 µM
TGI [7]: > 100 µM
TGI [8]: > 100 µM
TGI [9]: > 100 µM
TGI [10]: > 100 µM
TGI [11]: > 100 µM

Cc1cccc2c1C(=O)C(C1OC(=O)c3ccccc31)C2 (stereo not given)
TGI [1]: > 100 µM
TGI [2]: > 100 µM
TGI [3]: > 100 µM
TGI [4]: > 100 µM
TGI [5]: > 100 µM
TGI [6]: > 100 µM
TGI [7]: > 100 µM
TGI [8]: > 100 µM
TGI [9]: > 100 µM
TGI [10]: > 100 µM
TGI [11]: > 100 µM

CCC1(C)N=C(C(N)=O)c2ncn(N=C(C)C)c2N1 (stereo not given)
TGI [1]: > 100 µM
TGI [2]: > 100 µM
TGI [4]: > 100 µM
TGI [5]: > 100 µM
TGI [6]: > 100 µM
TGI [7]: > 100 µM
TGI [8]: > 100 µM
TGI [9]: > 100 µM
TGI [10]: > 100 µM

CC12ON=C(c3ccccc3)N1C=CN1C(c3ccccc3)=NOC12 (stereo not given)
TGI [1]: > 100 µM
TGI [4]: > 100 µM
TGI [5]: > 100 µM
TGI [6]: > 100 µM
TGI [7]: > 100 µM
TGI [8]: > 100 µM
TGI [9]: > 100 µM
TGI [10]: > 100 µM
TGI [11]: > 100 µM

Cc1ccc2[nH]c3c(C)c4ccncc4c(C)c3c2c1
TGI [1]: 2.11 µM
TGI [2]: 2.46 µM
TGI [3]: 1.95 µM
TGI [4]: 4.38 µM
TGI [5]: 2.22 µM
TGI [6]: 1.85 µM
TGI [9]: 2.28 µM
TGI [10]: 2.28 µM
TGI [11]: 2.32 µM

CCOC(=O)CCC(NC(=O)OCc1ccccc1)C(=O)NC(CCC(=O)OCC)C(=O)NC(CCC(=O)OCC)C(=O)NC(CCC(=O)OCC)C(=O)NC(CCC(=O)OCC)C(=O)OCC (stereo not given)
TGI [2]: > 100 µM
TGI [3]: > 100 µM
TGI [4]: > 100 µM
TGI [5]: > 100 µM
TGI [6]: > 100 µM
TGI [7]: > 100 µM
TGI [8]: > 100 µM
TGI [9]: > 100 µM
TGI [10]: > 100 µM
TGI [11]: > 100 µM

CC1(C)CC(=O)c2c(nc3ccc4ccccc4c3c2-c2ccc(NC(=O)CCCCC(=O)Nc3ccc(-c4c5c(nc6ccc7ccccc7c46)CC(C)(C)CC5=O)cc3)cc2)C1
TGI [1]: > 100 µM
TGI [2]: > 100 µM
TGI [3]: > 100 µM
TGI [4]: > 100 µM
TGI [5]: > 100 µM
TGI [6]: > 100 µM
TGI [7]: > 100 µM
TGI [8]: > 100 µM
TGI [10]: > 100 µM
TGI [11]: > 100 µM

COCN1C(=O)[C@@H]2CCCN2C(=O)c2cc([N+](=O)[O-])ccc21
TGI [1]: > 100 µM
TGI [2]: > 100 µM
TGI [4]: > 100 µM
TGI [5]: > 100 µM
TGI [6]: > 100 µM
TGI [7]: > 100 µM
TGI [9]: 44.6 µM
TGI [10]: > 100 µM
TGI [11]: > 100 µM

CC(C)(C)/C(O)=C\c1nc2cc(C(F)(F)F)ccc2[nH]c1=O
TGI [1]: > 100 µM
TGI [2]: > 100 µM
TGI [4]: > 100 µM
TGI [5]: > 100 µM
TGI [6]: > 100 µM
TGI [7]: > 100 µM
TGI [8]: > 100 µM
TGI [9]: > 100 µM
TGI [10]: > 100 µM

O=C(/C=C/c1ccc(Cl)c(Cl)c1)Oc1ccc(/C=C2\CCCCC2=O)cc1
TGI [1]: > 100 µM
TGI [2]: > 100 µM
TGI [3]: 72.1 µM
TGI [5]: > 100 µM
TGI [6]: > 100 µM
TGI [7]: > 100 µM
TGI [8]: > 100 µM
TGI [9]: > 100 µM
TGI [10]: > 100 µM
TGI [11]: > 100 µM

CC(=O)c1cn(-c2ccc(Cl)cc2)c(=O)c2c(N)n[nH]c12
TGI [1]: > 100 µM
TGI [2]: > 100 µM
TGI [3]: > 100 µM
TGI [4]: > 100 µM
TGI [5]: > 100 µM
TGI [6]: > 100 µM
TGI [7]: > 100 µM
TGI [10]: > 100 µM

COC/C=C\[C@@]1(O)CCCC[C@@H]1CC(OC)OC
TGI [1]: > 91.9 µM
TGI [2]: > 100 µM
TGI [3]: 31.4 µM
TGI [4]: > 100 µM
TGI [5]: > 100 µM
TGI [6]: > 100 µM
TGI [7]: > 100 µM
TGI [8]: > 100 µM
TGI [9]: 38.4 µM
